From the NIST ThermoML archive (doi:10.1016/j.jct.2013.04.001)

How the values were obtained:
[1] = wn = mass fraction of the nth substance listed; conditions: 101 kPa, Liquid; for mass density: Pycnometric method; for viscosity: Capillary tube (Ostwald / Ubbelohde) method
[2] = 101 kPa, Liquid, Capillary tube (Ostwald / Ubbelohde) method
[3] = mn = molality of the nth substance listed, in mol/kg; conditions: 101 kPa, Liquid, m2 = 0; for viscosity: Capillary tube (Ostwald / Ubbelohde) method

O=C[C@H](O)[C@@H](O)[C@H](O)CO [D-xylose] + O
[1]
Conditions	mass density, w1 = 0.025 [kg/m3]	mass density, w1 = 0.05 [kg/m3]	viscosity, w1 = 0.025 [mPa·s]	viscosity, w1 = 0.05 [mPa·s]
293.15 K	1007.24	1015.93	–	–
298.15 K	1005.63	1014.27	0.9096	0.964
303.15 K	1004.03	1012.62	0.8077	0.8547
308.15 K	1002.43	1010.96	0.7269	0.7637
313.15 K	1000.84	1009.31	0.6571	0.6869
318.15 K	999.23	1007.66	0.5992	0.6253

O=C[C@H](O)[C@@H](O)[C@@H](O)CO [L-arabinose] + O
[1]
Conditions	mass density, w1 = 0.025 [kg/m3]	mass density, w1 = 0.05 [kg/m3]	viscosity, w1 = 0.025 [mPa·s]	viscosity, w1 = 0.05 [mPa·s]
293.15 K	1007.35	1016.09	–	–
298.15 K	1005.77	1014.44	0.9141	0.9695
303.15 K	1004.18	1012.79	0.8116	0.8573
308.15 K	1002.6	1011.13	0.7304	0.7658
313.15 K	1001.01	1009.46	0.6591	0.689
318.15 K	999.43	1007.8	0.6006	0.6295

O [water]
[2]
Conditions	viscosity [mPa·s]
298.15 K	0.8903
303.15 K	0.7973
308.15 K	0.719
313.15 K	0.6526
318.15 K	0.5972

O [water] + N=C(N)NCCC[C@H](N)C(=O)O
[3]
Conditions	viscosity [mPa·s]
298.15 K	0.8903
303.15 K	0.7973
308.15 K	0.719
313.15 K	0.6526
318.15 K	0.5972

Conditions	mass density [kg/m3]
[3], 308.15 K, Pycnometric method	994.07
